Test system: AMPK
Assay: AMPK activation, enzyme-linked immunosorbent assay
Assay type: cell-based
How it was run: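 Each compound's EC50 for AMPK activation was the endpoint. In a cell-based assay, AMPK activity was read out as the relative concentration of phosphorylated acetyl-CoA carboxylase, a product of AMPK, measured by enzyme-linked immunosorbent assay. Values fell into the ranges less than 1 μM, 1-10 μM, 10-20 μM, 20-50 μM, 50-100 μM, and >100 μM.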

EC50 [µM] | SMILES
1 to 10 | O=C(NC1CCN(Cc2ccccc2)CC1)c1ccc(OC2CCN(Cc3ccco3)CC2)cc1 [Compound 3, N-(1-benzylpiperidin-4-yl)-4-(1-(furan-2-ylmethyl)piperidin-4-yloxy)benzamide]
50 to 100 | Cn1cncc1CN1CCC(Oc2ccc(C(=O)NC3CCN(Cc4ccccc4)CC3)cc2Cl)CC1 [Compound 5, N-(1-benzylpiperidin-4-yl)-3-chloro-4-(1-((l-methyl-1H-imidazol-5-yl)methyl)piperidin-4-yloxy)benzamide]
< 1 | O=C(NC1CCN(Cc2ccccc2)CC1)c1ccc(OC2CCN(Cc3ccncc3)CC2)c(Cl)c1 [Compound 6, N-(1-benzylpiperidin-4-yl)-3-chloro-4-(1-(pyridin-4-ylmethyl)piperidin-4-yloxy)benzamide]
1 to 10 | COc1cc(C(=O)NC2CCN(Cc3ccccc3)CC2)ccc1OC1CCN(c2cccs2)CC1 [Compound 8, N-(1-benzylpiperidin-4-yl)-3-methoxy-4-(1-(thiophen-2-yl)piperidin-4-yloxy)benzamide]
1 to 10 | O=C(NC1CCN(Cc2ccccc2)CC1)c1ccc(OC2CCN(c3cccs3)CC2)c(Cl)c1 [Compound 10, N-(1-benzylpiperidin-4-yl)-3-chloro-4-(1-(thiophen-2-yl)piperidin-4-yloxy)benzamide]
1 to 10 | O=C(NC1CCN(Cc2ccccc2)CC1)c1ccc(OC2CCN(c3ccco3)CC2)c(Cl)c1 [Compound 11, N-(1-benzylpiperidin-4-yl)-3-chloro-4-(1-(furan-2-yl)piperidin-4-yloxy)benzamide]
1 to 10 | COc1cc(C(=O)NC2CCN(Cc3ccccc3)CC2)ccc1OC1CCN(c2ccco2)CC1 [Compound 12, N-(1-benzylpiperidin-4-yl)-3-methoxy-4-(1-(furan-2-yl)piperidin-4-yloxy)benzamide]
< 1 | O=C(NC1CCN(Cc2ccccc2)CC1)c1ccc(OC2CCN(Cc3ccccc3)CC2)c(Cl)c1 [Compound 14, N-(1-benzylpiperidin-4-yl)-4-(1-benzylpiperidin-4-yloxy)-3-chlorobenzamide]
< 1 | O=C(NC1CCN(Cc2ccccc2)CC1)c1ccc(OC2CCN(Cc3ccc4c(c3)OCCO4)CC2)c(Cl)c1 [Compound 15, N-(1-benzylpiperidin-4-yl)-3-chloro-4-(1-((2,3-dihydrobenzo[b][1,4]dioxin-6-yl)methyl)piperidin-4-yloxy)benzamide]
< 1 | CC(C)(C)c1ccc(CN2CCC(Oc3ccc(C(=O)NC4CCN(Cc5ccccc5)CC4)cc3Cl)CC2)cc1 [Compound 16, N-(1-benzylpiperidin-4-yl)-4-(1-(4-tert-butylbenzyl)piperidin-4-yloxy)-3-chlorobenzamide]
< 1 | O=C(NC1CCN(Cc2ccccc2)CC1)c1ccc(OC2CCN(c3ccc(C(F)(F)F)cc3)CC2)c(Cl)c1 [Compound 17, N-(1-benzylpiperidin-4-yl)-3-chloro-4-(1-(4-(trifluoromethyl)phenyl)piperidin-4-yloxy)benzamide]
< 1 | O=C(NC1CCN(Cc2ccccc2)CC1)c1ccc(OC2CCN(C(=O)c3ccc(C(F)(F)F)cc3)CC2)c(Cl)c1 [Compound 18, N-(1-benzylpiperidin-4-yl)-3-chloro-4-(1-(4-(trifluoromethyl)benzoyl)piperidin-4-yloxy)benzamide]
< 1 | O=C(NC1CCN(Cc2ccccc2)CC1)c1ccc(OC2CCN(Cc3ccc(F)cc3)CC2)c(Cl)c1 [Compound 19, N-(1-benzylpiperidin-4-yl)-3-chloro-4-(1-(4-fluorobenzyl)piperidin-4-yloxy)benzamide]
1 to 10 | O=C(NC1CCN(Cc2ccccc2)CC1)c1ccc(OC2CCN(C(=O)c3ccc(F)cc3)CC2)c(Cl)c1 [Compound 22, N-(1-benzylpiperidin-4-yl)-3-chloro-4-(1-(4-fluorobenzoyl)piperidin-4-yloxy)benzamide]
10 to 20 | O=C(NC1CCN(Cc2ccccc2)CC1)c1ccc(OC2CCN(Cc3ccccc3C(F)(F)F)CC2)c(Cl)c1 [Compound 24, N-(1-benzylpiperidin-4-yl)-3-chloro-4-(1-(2-(trifluoromethyl)benzyl)piperidin-4-yloxy)benzamide]
< 1 | O=C(NC1CCN(Cc2ccccc2)CC1)c1ccc(OC2CCN(Cc3ccncc3)CC2)c(F)c1 [Compound 37, N-(1-benzylpiperidin-4-yl)-3-fluoro-4-(1-(pyridin-4-ylmethyl)piperidin-4-yloxy)benzamide]

More lines, now with the values behind:

SMILES | EC50 [µM]
Cn1cncc1CN1CCC(Oc2ccc(C(=O)NC3CCN(Cc4ccccc4)CC3)cc2)CC1 [Compound 4, N-(1-benzylpiperidin-4-yl)-4-(1-((l-methyl-1H-imidazol-5-yl)methyl)piperidin-4-yloxy)benzamide] | > 100
COc1cc(C(=O)NC2CCN(Cc3ccccc3)CC2)ccc1OC1CCN(CCCc2ccccc2)CC1 [Compound 7, N-(1-benzylpiperidin-4-yl)-3-methoxy-4-(1-(3-phenylpropyl)piperidin-4-yloxy)benzamide] | < 1
COc1cc(C(=O)NC2CCN(Cc3ccccc3)CC2)ccc1OC1CCN(S(C)(=O)=O)CC1 [Compound 9, N-(1-benzylpiperidin-4-yl)-3-methoxy-4-(1-(methylsulfonyl)piperidin-4-yloxy)benzamide] | 20 to 50
O=C(NC1CCN(Cc2ccccc2)CC1)c1cccc(OC2CCN(Cc3ccccc3)CC2)c1 [Compound 13, N-(1-benzylpiperidin-4-yl)-3-(1-benzylpiperidin-4-yloxy)benzamide] | 20 to 50
CC(C)(C)c1ccc(CN2CCC(Oc3ccc(C(=O)NC4CCN(Cc5ccccc5)CC4)cc3F)CC2)cc1 [Compound 20, N-(1-benzylpiperidin-4-yl)-3-fluoro-4-(1-(4-tert-butylbenzyl)piperidin-4-yloxy)benzamide] | < 1
CC(c1ccccc1)N1CCC(Oc2ccc(C(=O)NC3CCN(Cc4ccccc4)CC3)cc2F)CC1 (centres unmarked) [Compound 21, N-(1-benzylpiperidin-4-yl)-3-fluoro-4-(1-(1-phenylethyl)piperidin-4-yloxy)benzamide] | 1 to 10
O=C(NC1CCN(Cc2ccccc2)CC1)c1ccc(OC2CCN(c3ccc(C(F)(F)F)cc3)CC2)c(F)c1 [Compound 23, N-(1-benzylpiperidin-4-yl)-3-fluoro-4-(1-(4-(trifluoromethyl)phenyl)piperidin-4-yloxy)benzamide] | < 1
O=C(NC1CCN(c2ccccc2)CC1)c1ccc(OC2CCN(c3ccc(C(F)(F)F)cc3)CC2)c(F)c1 [Compound 25, 3-fluoro-N-(1-phenylpiperidin-4-yl)-4-(1-(4-(trifluoromethyl)phenyl)piperidin-4-yloxy)benzamide] | > 100
CC(C)(C)OC(=O)N1CCC(NC(=O)c2ccc(OC3CCN(c4ccc(C(F)(F)F)cc4)CC3)c(F)c2)CC1 [Compound 26, tert-butyl 4-(3-fluoro-4-(1-(4-(trifluoromethyl)phenyl)piperidin-4-yloxy)benzamido)piperidine-1-carboxylate] | < 1
O=C(NC1CCN(Cc2ccc(F)cc2)CC1)c1ccc(OC2CCN(c3ccc(C(F)(F)F)cc3)CC2)c(F)c1 [Compound 27, 3-fluoro-N-(1-(4-fluorobenzyl)piperidin-4-yl)-4-(1-(4-(trifluoromethyl)phenyl)piperidin-4-yloxy)benzamide] | < 1
O=C(NC1CCN(Cc2ccncc2)CC1)c1ccc(OC2CCN(c3ccc(C(F)(F)F)cc3)CC2)c(F)c1 [Compound 28, 3-fluoro-N-(1-(pyridin-4-ylmethyl)piperidin-4-yl)-4-(1-(4-(trifluoromethyl)phenyl)piperidin-4-yloxy)benzamide] | < 1
O=C(NC1CCN(Cc2cccnc2)CC1)c1ccc(OC2CCN(c3ccc(C(F)(F)F)cc3)CC2)c(F)c1 [Compound 29, 3-fluoro-N-(1-(pyridin-3-ylmethyl)piperidin-4-yl)-4-(1-(4-(trifluoromethyl)phenyl)piperidin-4-yloxy)benzamide] | < 1
CC(C)(C)C(=O)N1CCC(NC(=O)c2ccc(OC3CCN(c4ccc(C(F)(F)F)cc4)CC3)c(F)c2)CC1 [Compound 30, 3-fluoro-N-(1-pivaloylpiperidin-4-yl)-4-(1-(4-(trifluoromethyl)phenyl)piperidin-4-yloxy)benzamide] | < 1
O=C(NC1CCN(C(=O)c2ccc(F)cc2)CC1)c1ccc(OC2CCN(c3ccc(C(F)(F)F)cc3)CC2)c(F)c1 [Compound 31, 3-fluoro-N-(1-(4-fluorobenzoyl)piperidin-4-yl)-4-(1-(4-(trifluoromethyl)phenyl)piperidin-4-yloxy)benzamide] | < 1
O=C(NC1CCN(Cc2ccccn2)CC1)c1ccc(OC2CCN(c3ccc(C(F)(F)F)cc3)CC2)c(F)c1 [Compound 32, 3-fluoro-N-(1-(pyridin-2-ylmethyl)piperidin-4-yl)-4-(1-(4-(trifluoromethyl)phenyl)piperidin-4-yloxy)benzamide] | < 1
COC(=O)c1ccc(CN2CCC(NC(=O)c3ccc(OC4CCN(c5ccc(C(F)(F)F)cc5)CC4)c(F)c3)CC2)cc1 [Compound 33, methyl 4-((4-(3-fluoro-4-(1-(4-(trifluoromethyl)phenyl)piperidin-4-yloxy)benzamido)piperidin-1-yl)methyl)benzoate] | < 1
CC(C)S(=O)(=O)N1CCC(NC(=O)c2ccc(OC3CCN(c4ccc(C(F)(F)F)cc4)CC3)c(F)c2)CC1 [Compound 34, 3-fluoro-N-(1-(isopropylsulfonyl)piperidin-4-yl)-4-(1-(4-(trifluoromethyl)phenyl)piperidin-4-yloxy)benzamide] | < 1
O=C(O)c1ccc(CN2CCC(NC(=O)c3ccc(OC4CCN(c5ccc(C(F)(F)F)cc5)CC4)c(F)c3)CC2)cc1 [Compound 35, 4-((4-(3-fluoro-4-(1-(4-(trifluoromethyl)phenyl)piperidin-4-yloxy)benzamido)piperidin-1-yl)methyl)benzoic acid] | 1 to 10
CC(C)(C)c1ccc(CN2CCC(Oc3ccc(C(=O)NC4CCN(c5ccccc5)CC4)cc3F)CC2)cc1 [Compound 36, 4-(1-(4-tert-butylbenzyl)piperidin-4-yloxy)-3-fluoro-N-(1-phenylpiperidin-4-yl)benzamide] | < 1
